Assays:
PC-3 cells [1] = assay: MTS cell proliferation assay, PC-3; assay type: cell-based, human; conditions: for IC50: Homo sapiens
Method: Human BJ fibroblasts (American Type Cell Culture Collection, Manassas, VA, USA, CRL-2522) and human prostate cancer cell line PC-3 (American Type Cell Culture Collection, Manassas, VA, USA, CRL-1435), derived from bone metastases, were routinely grown in […]) Medium (ThermoFisher, Waltham, MA, USA, 21127-022) and supplemented with heat-inactivated 10% Fetal Bovine Serum (Biowest, France, […]) and 1% antibiotic solution (Biowest, Nuaillé, France, L0022), in a humidified 5% CO2 atmosphere at 37 °C. Cells were used between 3 and 20 passages. The 96-well plates were prepared by seeding 5 × 10^3 or 2.5 × 10^3 cells per well, for 24 and 48 h treatments, respectively, with at least five technical and two biological repeats. […] The cells were treated with either the Z conformer of 17j, with continuous illumination with 525 nm light, or the E conformer. The Z conformer was prepared by illuminating its DMSO solution with 525 nm light overnight. The cell proliferation was analyzed with CellTiter Aqueous One Solution Cell Proliferation MTS (3-(4,5-dimethylthiazol-2-yl)-5-(3-carboxymethoxyphenyl)-2-(4-sulfophenyl)-2H-tetrazolium) Assay (Promega, Madison, WI, USA, G5430) after 24 or 48 h of treatment. The absorbance was measured at 490 and 670 nm with FLUOStar Omega plate reader (BMG LABTECH GmbH, Ortenberg, Germany). The statistical analysis was performed within R 4.5.1 project. […] The log-logistic four parametric model (4PL), with the lower limit boundary set to 0 and group fitting, was used, as available in the drc package, to fit cell proliferation data. […] The assessment metrics for model goodness of fit were performed with functions available in the drc package and with custom ones. When appropriate, the delta method was applied to obtain error of central tendency. To assess the goodness of fit for each of the biological replicates, deviance R^2 (DR^2) was calculated and assessed. […] The DR^2 was calculated according to the following Equation: 1 - (Dres/Dnull), where Dres-residual deviance and Dnull-null deviance (deviance of the model with mean as a predicted value). The null hypothesis was assessed with the two-way ANOVA with Tukey's post hoc test for multiple comparisons or with the two-way t-test when only two groups were compared. The differences in the cell cycle percentages were assessed with the two-way ANOVA with Tukey's post hoc test.

BJ fibroblasts = assay: Cell cycle analysis by flow cytometry, BJ fibroblasts; assay type: cell-based, human; conditions: Z conformer, concentration not given
Method: (§1) The BJ or PC-3 cells were treated as described previously, with the exception that 0.15 × 10^6 cells per well were seeded in 6-well plates. After 24 h of treatment, cells were harvested by trypsinization (Biowest, Nuaillé, France, L0931), washed twice, resuspended in PBS, and added to cold 70% ethanol for overnight fixation at −20 °C. Subsequently, cells were centrifuged and resuspended in PBS containing 5 µg/mL of propidium iodide in PBS (Sigma-Aldrich, St. Louis, MO, USA, 4170), 0.1% Triton X-100, and 10 µg/mL of DNAse-free RNAse (A&A Biotechnology, Gdansk, Poland, 1006-10) in the dark for 4 h at 37 °C. FACS analysis was performed using a FACSCanto II flow cytometer and FACSDiva, version 9.0 software (BD Biosciences, San Jose, CA, USA). Flow rate was set to about 1000 events/cells per second. Signals from at least 10,000 events per sample were captured. The percentages of PC-3 cells in cell cycle phases (G0/G1, S, and G2/M) were determined using ModFit LT 4.1.7 (Verity Software House, Topsham, ME, USA).

[2] = Changes over time of Z to E transition by 19F NMR; assay type: physicochemical; conditions: light 525 nm, 100 mM in DMSO
Description: We can observe that for electromagnetic radiation in the range of wavelengths 390 nm to 610 nm, transitions from E to Z of about 0–76% are obtained. The best results for all compounds are in visible wavelengths 505 nm or 525 nm (30.59–75.44%). From analyzing Figure 2 we can draw the following conclusions: all synthesized compounds undergo switching under visible light (this is important because UV radiation can damage the DNA of cells, inhibiting replication and, as a result, preventing cell division). For the 2,6-difluoro substituents (17i), (17j), (17k), and (17l) with values of 74.84%, 73.2%, 74.39%, and 75.44%, respectively, the largest share of the Z configuration is at (525 nm) and, for the rest of (17a), (17b), (17c), (17e), (17f), and (17g), it is in range of 30.57–47.13% at 505 nm. […] Multiple cycles of photoreversible switching under alternating green and blue light irradiation, with no significant photobleaching or degradation, confirmed the repeatable and robust photochromic conversion of the synthesized azobenzenes (Figure 2b). Then we measured changes over time (transitions from Z to E, upon irradiation with 505 nm for (17a–17c) and (17e–17g), and 525 nm for (17i–17l) compounds (Figure 3, and see Section S4.3 in Supplementary Materials).

[3] = UV–VIS spectra of E/Z isomers in DMSO; assay type: physicochemical
Method: For this purpose, the UV–VIS spectra were measured for all synthesized hybrids (17a–17l) at concentrations from 20 to 500 µM in dimethyl sulfoxide (DMSO) in light at λ 505 nm and for (17a–17c), (17e–17g), and (17i–17l) at λ 525 nm, respectively, as detailed in Table 1 (see Section S4.4 in Supplementary Materials).

PC-3 cells [4] = assay: Cell cycle analysis by flow cytometry, PC-3; assay type: cell-based, human; conditions: Z conformer, 24 h; for percentage of cells in the G2/M phase: control 26.5%
Method: as §1

For COc1cc(/C=C/C(=O)c2cccc(/N=N/c3c(F)cccc3F)c2)cc(OC)c1 [Compound 17j], the “IC50 difference between PC-3 and BJ cells” value (PC-3 cells [1]; E conformer) was 2.2 fold, the “normalized asymptote (normalized limit)” value (PC-3 cells [1]; E conformer, 24 h) was 50.0 ± 9.9% and the “normalized asymptote (normalized limit)” value (PC-3 cells [1]; E conformer, 48 h) was 15.0 ± 0.2%. It also gave an IC50 (PC-3 cells [1]; PC-3, 24 h, E conformer, 24 h incubation) of 14.6 ± 1 µM, an IC50 (PC-3 cells [1]; PC-3, 24 h, Z conformer, 525 nm illumination, 24 h treatment) of 12 ± 4.42 µM and an IC50 (PC-3 cells [1]; PC-3, 48 h, E conformer, 48 h incubation) of 5.8 ± 0.8 µM. For the same compound, the IC50 (PC-3 cells [1]; PC-3, 48 h, Z conformer, 525 nm illumination, 48 h treatment) was 4.75 ± 1 µM, the “normalized asymptote (ratio of lower to upper asymptote)” value (PC-3 cells [1]; Z conformer, 24 h) was 44.9 ± 3.7% and the “normalized asymptote (ratio of lower to upper asymptote)” value (PC-3 cells [1]; Z conformer, 48 h) was 0.9 ± 0.9%. For the same compound, the “cells undergoing the G0/G1 phase” value (BJ fibroblasts; decrease from 86.4) was 51.5%, the “cells in the S phase” value (BJ fibroblasts; increase from 0.4) was 8% and the “cells in the G2/M phase” value (BJ fibroblasts; increase from 11.9) was 15.6%. The “Z isomer, changes over time” value ([2]; 0 h) was 73.2%, the “Z isomer, changes over time” value ([2]; 1 h) was 72.55% and the “Z isomer, changes over time” value ([2]; 2 h) was 71.89%. For the same compound, the “Z isomer, changes over time” value ([2]; 3 h) was 71.23%, the “Z isomer, changes over time” value ([2]; 4 h) was 71% and the “Z isomer, changes over time” value ([2]; 5 h) was 70.01%. The “Z isomer, changes over time” value ([2]; 6 h) was 69.58%, the “Z isomer, changes over time” value ([2]; 7 h) was 69.12% and the “Z isomer, changes over time” value ([2]; 8 h) was 67.9%. The “Δ (Z to E change 0 h to 8 h)” value [2] was 5.3%, the “εmax (n→π*)” value ([3]; E isomer) was 922 dm^3·mol^−1·cm^−1 and the “λmax n→π* (E)” value ([3]; E isomer) was 448.3 nm. For the same compound, the “εmax (n→π*)” value ([3]; Z isomer) was 1130 dm^3·mol^−1·cm^−1, the “λmax n→π* (Z)” value ([3]; Z isomer) was 417.4 nm and the “Δ λmax n→π*” value ([3]; between E and Z isomers) was 30.9 nm. The “percentage of cells in the G2/M phase” value (PC-3 cells [4]; 20 µM) was 30.2%, the “percentage of cells in the S phase” value (PC-3 cells [4]; 30 µM) was 28.8% and the “percentage of cells in the G2/M phase” value (PC-3 cells [4]; 30 µM) was 37.0%. For the same compound, the “percentage of cells in the S phase” value (PC-3 cells [4]; 40 µM) was 31% and the “percentage of cells in the G2/M phase” value (PC-3 cells [4]; 40 µM) was 32.1%.

From PMC12844124, “Synthesis and Study of Substituted Chalcones Combined with Fluoroazobenzenes—New Photoswitches for Application in Biological Systems” (Molecules, 2026)
